Assay results taken from US8613914B2, “Peptidomimetic sulfamide compounds and antiviral uses thereof” (Novartis AG, priority 2009, dated 2013).

Biological target: HCV NS3-4A serine protease (full-length NS3-4A protein) (Hepatitis C virus genotype 1a (isolate 1) (HCV), UniProt P26664)
Assay: HCV NS3-4A protease assay
Assay type: biochemical, HCV genotype 1a
Details: strain HCV-1, fluorogenic peptide substrate, read-out: Protease assay Ex. 12 IC50
Description: The inhibitory activity of certain compounds of Table A against HCV NS3-4A serine protease is determined in a homogenous assay using the full-length NS3-4A protein (genotype 1a, strain HCV-1) and a commercially available internally-quenched fluorogenic peptide substrate as described by Taliani, M., et al. 1996 Anal. Biochem. 240:60-67, which is incorporated by reference in its entirety.

HCV NS3-4A serine protease (full-length NS3-4A protein), sequence (P26664 1027-1657): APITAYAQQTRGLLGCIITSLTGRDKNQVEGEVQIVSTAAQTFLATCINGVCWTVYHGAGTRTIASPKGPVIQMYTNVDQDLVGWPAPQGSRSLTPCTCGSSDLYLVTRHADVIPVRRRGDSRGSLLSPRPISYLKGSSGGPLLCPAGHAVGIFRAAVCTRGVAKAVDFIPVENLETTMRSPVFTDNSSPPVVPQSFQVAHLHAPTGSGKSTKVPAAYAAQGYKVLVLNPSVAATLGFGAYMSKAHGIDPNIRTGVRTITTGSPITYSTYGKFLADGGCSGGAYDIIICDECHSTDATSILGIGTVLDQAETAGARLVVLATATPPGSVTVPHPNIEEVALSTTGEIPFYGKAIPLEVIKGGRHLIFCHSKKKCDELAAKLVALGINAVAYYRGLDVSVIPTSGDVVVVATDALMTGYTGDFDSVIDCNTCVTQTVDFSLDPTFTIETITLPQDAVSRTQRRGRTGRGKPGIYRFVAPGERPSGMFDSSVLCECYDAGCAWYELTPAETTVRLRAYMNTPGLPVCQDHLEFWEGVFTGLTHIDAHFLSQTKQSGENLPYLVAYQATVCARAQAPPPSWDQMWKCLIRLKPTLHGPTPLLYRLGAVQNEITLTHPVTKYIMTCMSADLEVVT
HCV NS3-4A serine protease (full-length NS3-4A protein), sequence (P26664 1658-1711 partner): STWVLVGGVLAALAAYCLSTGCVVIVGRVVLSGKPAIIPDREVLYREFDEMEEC

First: CC[C@@H]1C[C@]1(NC(=O)[C@@H]1C[C@@]2(CN1C(=O)[C@@H](NC(=O)[C@@H](NC(=O)[C@@H]1CCCCN1C(C)C)C1CCCCC1)C(C)(C)C)C(C)(C)C21CCC1)C(=O)NS(=O)(=O)N(C)C1CC1 [Compound 90, (5R,8S)-7-[(2S)-2-{[(2S)-2-cyclohexyl-2-({[(2S)-1-isopropylpiperidin-2-yl]carbonyl}amino)acetyl]amino}-3,3-dimethylbutanoyl]-N-[(1R,2R)-1-({[cyclopropyl(methyl)amino]sulfonyl}carbamoyl)-2-ethylcyclopropyl]-10,10-dimethyl-7-azadispiro[3.0.4.1]decane-8-carboxamide]
Second: C=C[C@@H]1C[C@]1(NC(=O)[C@@H]1C[C@@]2(CN1C(=O)[C@@H](NC(=O)[C@@H](NC(=O)[C@H]1CCCCN1C(C)C)C1CCCCC1)C(C)(C)C)C(C)(C)C21CCC1)C(=O)NS(=O)(=O)N(C)CC [Compound 92, (5R,8S)-7-[(2S)-2-{[(2S)-2-cyclohexyl-2-({[(2R)-1-isopropylpiperidin-2-yl]carbonyl}amino)acetyl]amino}-3,3-dimethylbutanoyl]-N-[(1R,2S)-1-({[ethyl(methyl)amino]sulfonyl}carbamoyl)-2-vinylcyclopropyl]-10,10-dimethyl-7-azadispiro[3.0.4.1]decane-8-carboxamide]
The IC50 of the first is 2.2-fold higher: 6.5 nM for the first, 3 nM for the second. The second is the more potent here.

Going from `C=C[C@@H]1C[C@]1(NC(=O)[C@@H]1C[C@@]2(CN1C(=O)[C@@H](NC(=O)[C@@H](NC(=O)[C@@H]1CCCN1C(C)C)C1CCCCC1)C(C)(C)C)C(C)(C)C21CCC1)C(=O)NS(=O)(=O)N(C)CC` [Compound 91, (5R,8S)-7-[(2S)-2-{[(2S)-2-cyclohexyl-2-({[(2S)-1-isopropylpyrrolidin-2-yl]carbonyl}amino)acetyl]amino}-3,3-dimethylbutanoyl]-N-[(1R,2S)-1-({[ethyl(methyl)amino]sulfonyl}carbamoyl)-2-vinylcyclopropyl]-10,10-dimethyl-7-azadispiro[3.0.4.1]decane-8-carboxamide] to `C=C[C@@H]1C[C@]1(NC(=O)[C@@H]1C[C@@]2(CN1C(=O)[C@@H](NC(=O)[C@@H](NC(=O)[C@@H]1CCCCN1C)C1CCCCC1)C(C)(C)C)C(C)(C)C21CCC1)C(=O)NS(=O)(=O)N(C)CC` [Compound 93, (5R,8S)-7-[(2S)-2-{[(2S)-2-cyclohexyl-2-({[(2S)-1-methylpiperidin-2-yl]carbonyl}amino)acetyl]amino}-3,3-dimethylbutanoyl]-N-[(1R,2S)-1-({[ethyl(methyl)amino]sulfonyl}carbamoyl)-2-vinylcyclopropyl]-10,10-dimethyl-7-azadispiro[3.0.4.1]decane-8-carboxamide], the IC50 falls from 5 nM to 2 nM (2.5-fold).

Going from `C=C[C@@H]1C[C@]1(NC(=O)[C@@H]1C[C@@]2(CN1C(=O)[C@@H](NC(=O)[C@@H](NC(=O)[C@@H]1CCCCN1CC)C1CCCCC1)C(C)(C)C)C(C)(C)C21CCC1)C(=O)NS(=O)(=O)N(C)CC` [Compound 94, (5R,8S)-7-[(2S)-2-{[(2S)-2-cyclohexyl-2-({[(2S)-1-ethylpiperidin-2-yl]carbonyl}amino)acetyl]amino}-3,3-dimethylbutanoyl]-N-[(1R,2S)-1-({[ethyl(methyl)amino]sulfonyl}carbamoyl)-2-vinylcyclopropyl]-10,10-dimethyl-7-azadispiro[3.0.4.1]decane-8-carboxamide] to `C=C[C@@H]1C[C@]1(NC(=O)[C@@H]1C[C@@]2(CN1C(=O)[C@@H](NC(=O)[C@@H](NC(=O)[C@@H]1CCCN1CC)C1CCCCC1)C(C)(C)C)C(C)(C)C21CCC1)C(=O)NS(=O)(=O)N(C)CCC` [Compound 98, (5R,8S)-7-[(2S)-2-{[(2S)-2-cyclohexyl-2-({[(2S)-1-ethylpyrrolidin-2-yl]carbonyl}amino)acetyl]amino}-3,3-dimethylbutanoyl]-10,10-dimethyl-N-[(1R,2S)-1-({[methyl(propyl)amino]sulfonyl}carbamoyl)-2-vinylcyclopropyl]-7-azadispiro[3.0.4.1]decane-8-carboxamide], the IC50 rises from 1.5 nM to 7 nM (4.7-fold).

Compared with `C=C[C@@H]1C[C@]1(NC(=O)[C@@H]1C[C@@]2(CN1C(=O)[C@@H](NC(=O)[C@@H](NC(=O)[C@@H]1CCCN1CC)C1CCCCC1)C(C)(C)C)C(C)(C)C21CCC1)C(=O)NS(=O)(=O)N1CCCCC1` [Compound 95, (5R,8S)-7-[(2S)-2-{[(2S)-2-cyclohexyl-2-({[(2S)-1-ethylpyrrolidin-2-yl]carbonyl}amino)acetyl]amino}-3,3-dimethylbutanoyl]-10,10-dimethyl-N-{(1R,2S)-1-[(piperidin-1-ylsulfonyl)carbamoyl]-2-vinylcyclopropyl}-7-azadispiro[3.0.4.1]decane-8-carboxamide], `CC[C@@H]1C[C@]1(NC(=O)[C@@H]1C[C@@]2(CN1C(=O)[C@@H](NC(=O)[C@@H](NC(=O)[C@@H]1CCCN1CC)C1CCCCC1)C(C)(C)C)C(C)(C)C21CCC1)C(=O)NS(=O)(=O)N1CCCC1` [Compound 99, (5R,8S)-7-[(2S)-2-{[(2S)-2-cyclohexyl-2-({[(2S)-1-ethylpyrrolidin-2-yl]carbonyl}amino)acetyl]amino}-3,3-dimethylbutanoyl]-N-{(1R,2R)-2-ethyl-1-[(pyrrolidin-1-ylsulfonyl)carbamoyl]cyclopropyl}-10,10-dimethyl-7-azadispiro[3.0.4.1]decane-8-carboxamide] is 4-fold higher in IC50: 5 nM for the first, 20 nM for the second.

`C=C[C@@H]1C[C@]1(NC(=O)[C@@H]1C[C@@]2(CN1C(=O)[C@@H](NC(=O)[C@@H](NC(=O)[C@@H]1CCCN1CC)C1CCCCC1)C1CCOCC1)C(C)(C)C21CCC1)C(=O)NS(=O)(=O)N(CC)CC` [Compound 96, (5R,8S)-7-[(2S)-2-{[(2S)-2-cyclohexyl-2-({[(2S)-1-ethylpyrrolidin-2-yl]carbonyl}amino)acetyl]amino}-2-(tetrahydro-2H-pyran-4-yl)acetyl]-N-[(1R,2S)-1-{[(diethylamino)sulfonyl]carbamoyl}-2-vinylcyclopropyl]-10,10-dimethyl-7-azadispiro[3.0.4.1]decane-8-carboxamide] and `C=C[C@@H]1C[C@]1(NC(=O)[C@@H]1C[C@@]2(CN1C(=O)[C@@H](NC(=O)[C@@H](NC(=O)[C@@H]1CCCN1CC)C1CCCC1)C(C)(C)C)C(C)(C)C21CCC1)C(=O)NS(=O)(=O)N(CC)CC` [Compound 97, (5R,8S)-7-[(2S)-2-{[(2S)-2-cyclopentyl-2-({[(2S)-1-ethylpyrrolidin-2-yl]carbonyl}amino)acetyl]amino}-3,3-dimethylbutanoyl]-N-[(1R,2S)-1-{[(diethylamino)sulfonyl]carbamoyl}-2-vinylcyclopropyl]-10,10-dimethyl-7-azadispiro[3.0.4.1]decane-8-carboxamide] are within 1.5-fold of each other in IC50: 7 nM for the first, 10 nM for the second.

First: C=C[C@@H]1C[C@]1(NC(=O)[C@@H]1C[C@@]2(CN1C(=O)[C@@H](NC(=O)[C@@H](NC(=O)[C@@H]1CCCN1CC)c1ccccc1)C(C)(C)C)C(C)(C)C21CCC1)C(=O)NS(=O)(=O)N1CCCC1 [Compound 102, (5R,8S)-7-[(2S)-2-{[(2S)-2-({[(2S)-1-ethylpyrrolidin-2-yl]carbonyl}amino)-2-phenylacetyl]amino}-3,3-dimethylbutanoyl]-10,10-dimethyl-N-{(1R,2S)-1-[(pyrrolidin-1-ylsulfonyl)carbamoyl]-2-vinylcyclopropyl}-7-azadispiro[3.0.4.1]decane-8-carboxamide]
Second: C=C[C@@H]1C[C@]1(NC(=O)[C@@H]1C[C@@]2(CN1C(=O)[C@@H](NC(=O)[C@@H](NC(=O)[C@@H]1CCCCN1CC)c1ccccc1)C(C)(C)C)C(C)(C)C21CCC1)C(=O)NS(=O)(=O)N1CCCC1 [Compound 103, (5R,8S)-7-[(2S)-2-{[(2S)-2-({[(2S)-1-ethylpiperidin-2-yl]carbonyl}amino)-2-phenylacetyl]amino}-3,3-dimethylbutanoyl]-10,10-dimethyl-N-{(1R,2S)-1-[(pyrrolidin-1-ylsulfonyl)carbamoyl]-2-vinylcyclopropyl}-7-azadispiro[3.0.4.1]decane-8-carboxamide]
The IC50 of the first is 2.5-fold lower: 8 nM for the first, 20 nM for the second.

First: C=C[C@@H]1C[C@]1(NC(=O)[C@@H]1C[C@@]2(CN1C(=O)[C@@H](NC(=O)[C@@H](NC(=O)[C@@H]1CCCCN1C(C)C)c1ccccc1)C(C)(C)C)C(C)(C)C21CCC1)C(=O)NS(=O)(=O)N1CCCC1 [Compound 104, (5R,8S)-7-[(2S)-2-{[(2S)-2-({[(2S)-1-isopropylpiperidin-2-yl]carbonyl}amino)-2-phenylacetyl]amino}-3,3-dimethylbutanoyl]-10,10-dimethyl-N-{(1R,2S)-1-[(pyrrolidin-1-ylsulfonyl)carbamoyl]-2-vinylcyclopropyl}-7-azadispiro[3.0.4.1]decane-8-carboxamide]
Second: C=C[C@@H]1C[C@]1(NC(=O)[C@@H]1C[C@@]2(CN1C(=O)[C@@H](NC(=O)[C@@H](NC(=O)[C@@H]1CCC(F)(F)CN1C(C)C)C1CCCCC1)C(C)(C)C)C(C)(C)C21CCC1)C(=O)NS(=O)(=O)N1CCCC1 [Compound 105, (5R,8S)-7-[(2S)-2-{[(2S)-2-cyclohexyl-2-({[(2S)-5,5-difluoro-1-isopropylpiperidin-2-yl]carbonyl}amino)acetyl]amino}-3,3-dimethylbutanoyl]-10,10-dimethyl-N-{(1R,2S)-1-[(pyrrolidin-1-ylsulfonyl)carbamoyl]-2-vinylcyclopropyl}-7-azadispiro[3.0.4.1]decane-8-carboxamide]
The IC50 of the first is 3-fold lower: 15 nM for the first, 45 nM for the second.

`C=C[C@@H]1C[C@]1(NC(=O)[C@@H]1C[C@@]2(CN1C(=O)[C@@H](NC(=O)[C@@H](NC(=O)[C@@H]1CCCCN1C(C)C)C1CCCCC1)C(C)(C)C)C(C)(C)C21CCC1)C(=O)NS(=O)(=O)N(CC)CCC` [Compound 106, (5R,8S)-7-[(2S)-2-{[(2S)-2-cyclohexyl-2-({[(2S)-1-isopropylpiperidin-2-yl]carbonyl}amino)acetyl]amino}-3,3-dimethylbutanoyl]-N-[(1R,2S)-1-({[ethyl(propyl)amino]sulfonyl}carbamoyl)-2-vinylcyclopropyl]-10,10-dimethyl-7-azadispiro[3.0.4.1]decane-8-carboxamide] was tested, and the IC50 was 10 nM.
